The source of these data is patent publication US20230265151A1, “GIP/GLP1 CO-AGONIST COMPOUNDS” (priority 2020, published 2023).

Where two headings read alike, the source gives them in different places.

Type in all cases: cell-based
In assay [1] the target is hGLP-1R (Homo sapiens, UniProt P43220). Nature of the assay: Functional cAMP formation (HTRF) in HEK-293 clonal cells expressing hGLP-1R, 0.1% bovine casein, without or with 1.0% human serum albumin. The arrangement: expressed in transfected cells. Particulars: for EC50: cAMP, 0.1% bovine casein (no human serum albumin), geometric mean. The method in brief: (§1)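 Cells were stimulated with peptide for 30 min at 37° C, then lysed in buffer carrying cAMP-d2 and anti-cAMP Eu3+-cryptate for a competitive HTRF read after at least 60 min at room temperature. The 665/620 nm ratio was converted to nM cAMP against a standard curve.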
hGLP-1R, sequence (P43220 24-463): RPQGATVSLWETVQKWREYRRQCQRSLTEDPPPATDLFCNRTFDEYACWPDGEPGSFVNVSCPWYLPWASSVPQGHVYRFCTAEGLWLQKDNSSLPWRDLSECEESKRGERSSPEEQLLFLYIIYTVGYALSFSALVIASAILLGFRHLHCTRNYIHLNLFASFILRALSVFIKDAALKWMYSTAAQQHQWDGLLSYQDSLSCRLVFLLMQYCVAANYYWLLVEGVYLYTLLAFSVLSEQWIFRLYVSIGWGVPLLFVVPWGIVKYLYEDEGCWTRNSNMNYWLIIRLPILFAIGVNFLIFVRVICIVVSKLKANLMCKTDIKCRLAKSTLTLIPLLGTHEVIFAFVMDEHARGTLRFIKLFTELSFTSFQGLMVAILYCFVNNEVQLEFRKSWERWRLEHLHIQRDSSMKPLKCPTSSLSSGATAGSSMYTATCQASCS

The target in assay [2] is T1, hGCGR (Homo sapiens, UniProt P47871).
T1 construct: expressed in transfected cells
T1 sequence (P47871 26-477): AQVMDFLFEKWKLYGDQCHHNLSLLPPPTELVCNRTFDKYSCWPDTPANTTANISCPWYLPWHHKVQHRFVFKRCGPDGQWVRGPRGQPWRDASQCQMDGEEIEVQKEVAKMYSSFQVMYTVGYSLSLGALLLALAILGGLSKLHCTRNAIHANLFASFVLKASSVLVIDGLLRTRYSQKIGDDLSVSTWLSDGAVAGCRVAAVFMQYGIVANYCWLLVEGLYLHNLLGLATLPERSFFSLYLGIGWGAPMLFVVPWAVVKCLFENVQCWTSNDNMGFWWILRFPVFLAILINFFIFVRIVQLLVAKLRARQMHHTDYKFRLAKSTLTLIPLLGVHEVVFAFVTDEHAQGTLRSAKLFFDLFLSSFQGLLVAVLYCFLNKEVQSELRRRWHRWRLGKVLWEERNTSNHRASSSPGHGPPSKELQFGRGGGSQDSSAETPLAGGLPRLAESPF
Nature of the assay: Functional cAMP formation (HTRF) in HEK-293 clonal cells expressing hGCGR, 0.1% bovine casein, without or with 1.0% human serum albumin. Particulars: geometric mean. The method in brief:
as §1
(Changes in cAMP serve as a functional read-out for many G protein-coupled receptors.)

For assay [3], the target named is T2, hGIPR (Homo sapiens, UniProt P48546).
T2 construct: expressed in transfected cells
T2 sequence (P48546 22-466): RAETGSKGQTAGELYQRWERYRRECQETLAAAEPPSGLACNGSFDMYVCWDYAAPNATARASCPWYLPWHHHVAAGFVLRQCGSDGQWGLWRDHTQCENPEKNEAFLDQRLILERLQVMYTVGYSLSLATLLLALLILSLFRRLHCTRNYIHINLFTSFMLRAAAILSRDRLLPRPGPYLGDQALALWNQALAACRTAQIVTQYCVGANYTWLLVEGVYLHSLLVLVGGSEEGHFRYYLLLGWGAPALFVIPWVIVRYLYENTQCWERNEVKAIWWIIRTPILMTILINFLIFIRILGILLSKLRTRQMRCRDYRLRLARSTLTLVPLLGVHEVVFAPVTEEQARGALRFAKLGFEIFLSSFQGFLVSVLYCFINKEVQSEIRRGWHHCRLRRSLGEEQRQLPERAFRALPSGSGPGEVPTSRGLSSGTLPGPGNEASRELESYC
Nature of the assay: Functional cAMP formation (HTRF) in HEK-293 clonal cells expressing hGIPR, 0.1% bovine casein, without or with 1.0% human serum albumin. Particulars: for EC50: geometric mean. The method in brief:
as §1

Where [4] appears, read: 0.1% bovine casein and 1.0% human serum albumin, 37° C., read-out: hGCGR EC50, nM (SEM, n).
[5] abbreviates: HEK293, 0.1% bovine casein and 1.0% human serum albumin, 37° C., percent of maximal response to GIP(1-42)NH2, read-out: hGIPR Emax, % ± SEM.
[6] abbreviates: HEK293, read-out: hGLP-1R Emax, % ± SEM, 0.1% bovine casein and 1.0% human serum albumin, 37° C., percent of maximal response to GLP-1(7-36)NH2.
Where [7] appears, read: hGCGR EC50, nM (SEM, n), 0.1% bovine casein and 1.0% human serum albumin, 37° C.
Where [8] appears, read: HEK293, read-out: hGIPR Emax, % ± SEM, 0.1% bovine casein and 1.0% human serum albumin, 37° C., percent of maximal response to GIP(1-42)NH2.

Consider `CC[C@H](C)[C@H](NC(=O)[C@H](CC(C)C)NC(=O)[C@](C)(Cc1ccc(O)cc1)NC(=O)[C@@H](CCC(=O)O)NC(=O)[C@@H](NC(=O)[C@H](Cc1ccccc1)NC(=O)[C@H](CCCCNC(=O)COCCOCCNC(=O)COCCOCCNC(=O)CC[C@H](NC(=O)CCCCCCCCCCCCC(=O)O)C(=O)O)NC(=O)C(C)(C)NC(=O)[C@H](CCC(N)=O)NC(=O)[C@H](C)NC(=O)[C@H](CCCCNC(=O)COCCOCCNC(=O)COCCOCCNC(=O)CC[C@H](NC(=O)CCCCCCCCCCCCC(=O)O)C(=O)O)NC(=O)[C@H](CCCN)NC(=O)[C@H](CC(=O)O)NC(=O)[C@H](CC(C)C)NC(=O)[C@](C)(CC(C)C)NC(=O)[C@@H](NC(=O)C(C)(C)NC(=O)[C@@H](NC(=O)[C@H](CC(=O)O)NC(=O)[C@H](CO)NC(=O)[C@@H](NC(=O)[C@](C)(Cc1ccccc1F)NC(=O)[C@@H](NC(=O)CNC(=O)[C@H](CCC(=O)O)NC(=O)C(C)(C)NC(=O)[C@@H](N)Cc1ccc(O)cc1)[C@@H](C)O)[C@@H](C)O)C(C)C)[C@@H](C)CC)[C@@H](C)CC)C(=O)N[C@@H](CCC(=O)O)C(=O)NCC(=O)NCC(=O)N1CCC[C@H]1C(=O)N[C@@H](CO)C(=O)N[C@@H](CO)C(=O)NCC(=O)N[C@@H](C)C(=O)N1CCC[C@H]1C(=O)N1CCC[C@H]1C(=O)N1CCC[C@H]1C(=O)N[C@@H](CO)C(N)=O` [Example 318], for which the concentration for a half-maximal effect (EC50) in assay [1] (37° C., read-out: hGLP-1R EC50, nM (SEM, n)) is 0.219 nM; in assay [2] (setting [4]), greater than 9950 nM; in assay [2] (cAMP, 37° C., 0.1% bovine casein (no human serum albumin), read-out: hGCGR EC50, nM (SEM, n)), greater than 9950 nM; in assay [3] (cAMP, 37° C., 0.1% bovine casein (no human serum albumin), read-out: hGIPR EC50, nM (SEM, n)), 0.0402 nM. Further, in assay [3] (setting [5]), the Emax turned out to be 91.4%.
On to `CC[C@H](C)[C@H](NC(=O)[C@H](CC(C)C)NC(=O)[C@](C)(Cc1ccc(O)cc1)NC(=O)[C@@H](CCC(=O)O)NC(=O)[C@@H](NC(=O)[C@H](Cc1ccccc1)NC(=O)[C@H](CCC(=O)O)NC(=O)C(C)(C)NC(=O)[C@H](CCC(N)=O)NC(=O)[C@H](C)NC(=O)[C@H](CCCCNC(=O)COCCOCCNC(=O)COCCOCCNC(=O)CC[C@H](NC(=O)CCCCCCCCCOc1ccc(C(=O)O)cc1)C(=O)O)NC(=O)[C@H](CCCN)NC(=O)[C@H](CC(=O)O)NC(=O)[C@H](CC(C)C)NC(=O)[C@](C)(CC(C)C)NC(=O)[C@@H](NC(=O)C(C)(C)NC(=O)[C@H](Cc1ccncc1)NC(=O)[C@H](CC(=O)O)NC(=O)[C@H](CO)NC(=O)[C@@H](NC(=O)[C@](C)(Cc1ccccc1F)NC(=O)[C@@H](NC(=O)CNC(=O)[C@H](CCC(=O)O)NC(=O)C(C)(C)NC(=O)[C@@H](N)Cc1ccc(O)cc1)[C@@H](C)O)[C@@H](C)O)[C@@H](C)CC)[C@@H](C)CC)C(=O)N[C@@H](CCCCNC(=O)COCCOCCNC(=O)COCCOCCNC(=O)CC[C@H](NC(=O)CCCCCCCCCOc1ccc(C(=O)O)cc1)C(=O)O)C(=O)NCC(=O)NCC(=O)N1CCC[C@H]1C(=O)N[C@@H](CO)C(=O)N[C@@H](CO)C(=O)NCC(=O)N[C@@H](C)C(=O)N1CCC[C@H]1C(=O)N1CCC[C@H]1C(=O)N1CCC[C@H]1C(=O)N[C@@H](CO)C(N)=O` [Example 244], for which the Emax in assay [1] (setting [6]) worked out at 96.3%; in assay [3] (setting [8]), 89.5%. In addition, the EC50 was 2.25 nM in assay [1] (hGLP-1R EC50, nM (SEM, n), incubated at 37° C.); greater than 9950 nM in assay [2] (setting [7]); greater than 9950 nM in assay [2] (hGCGR EC50, nM (SEM, n), cAMP, incubated at 37° C., 0.1% bovine casein (no human serum albumin)); 0.0218 nM in assay [3] (hGIPR EC50, nM (SEM, n), cAMP, incubated at 37° C., 0.1% bovine casein (no human serum albumin)).
`CC[C@H](C)[C@H](NC(=O)[C@H](CC(C)C)NC(=O)[C@](C)(Cc1ccc(O)cc1)NC(=O)[C@@H](CCC(=O)O)NC(=O)[C@@H](NC(=O)[C@H](Cc1ccccc1)NC(=O)[C@H](CCC(=O)O)NC(=O)C(C)(C)NC(=O)[C@H](CCC(N)=O)NC(=O)[C@H](C)NC(=O)[C@H](CCCCNC(=O)COCCOCCNC(=O)COCCOCCNC(=O)CC[C@H](NC(=O)CCCCCCCCCOc1ccc(C(=O)O)cc1)C(=O)O)NC(=O)[C@H](CCCN)NC(=O)[C@H](CC(=O)O)NC(=O)[C@H](CC(C)C)NC(=O)[C@](C)(CC(C)C)NC(=O)[C@@H](NC(=O)[C@H](CO)NC(=O)[C@H](Cc1ccncc1)NC(=O)[C@H](CC(=O)O)NC(=O)[C@H](CO)NC(=O)[C@@H](NC(=O)[C@](C)(Cc1ccccc1F)NC(=O)[C@@H](NC(=O)CNC(=O)[C@H](CCC(=O)O)NC(=O)C(C)(C)NC(=O)[C@@H](N)Cc1ccc(O)cc1)[C@@H](C)O)[C@@H](C)O)[C@@H](C)CC)[C@@H](C)CC)C(=O)N[C@@H](CCC(=O)O)C(=O)NCC(=O)NCC(=O)N1CCC[C@H]1C(=O)N[C@@H](CO)C(=O)N[C@@H](CO)C(=O)NCC(=O)N[C@@H](C)C(=O)N1CCC[C@H]1C(=O)N1CCC[C@H]1C(=O)N1CCC[C@H]1C(=O)N[C@@H](CO)C(=O)N[C@@H](CCCCNC(=O)COCCOCCNC(=O)COCCOCCNC(=O)CC[C@H](NC(=O)CCCCCCCCCOc1ccc(C(=O)O)cc1)C(=O)O)C(N)=O` [Example 273]: the Emax in assay [1] (setting [6]) was determined as 90.5%; in assay [3] (setting [8]) it was 88.4%. The EC50 in assay [2] (setting [7]) was greater than 9950 nM; in assay [2] (hGCGR EC50, nM (SEM, n), cAMP, 37° C., 0.1% bovine casein (no human serum albumin)), greater than 9950 nM; in assay [3] (hGIPR EC50, nM (SEM, n), cAMP, 37° C., 0.1% bovine casein (no human serum albumin)), 0.0166 nM.
`CC[C@H](C)[C@H](NC(=O)[C@H](CC(C)C)NC(=O)[C@](C)(Cc1ccc(O)cc1)NC(=O)[C@@H](CCC(=O)O)NC(=O)[C@@H](NC(=O)[C@H](Cc1ccccc1)NC(=O)[C@H](CCC(=O)O)NC(=O)C(C)(C)NC(=O)[C@H](CCC(N)=O)NC(=O)[C@H](C)NC(=O)[C@H](CCCCNC(=O)COCCOCCNC(=O)COCCOCCNC(=O)COCCOCCNC(=O)CC[C@H](NC(=O)CCCCCCCCCCCCC(=O)O)C(=O)O)NC(=O)[C@H](CCCN)NC(=O)[C@H](CC(=O)O)NC(=O)[C@H](CC(C)C)NC(=O)[C@](C)(CC(C)C)NC(=O)[C@@H](NC(=O)[C@H](CO)NC(=O)[C@H](Cc1ccncc1)NC(=O)[C@H](CC(=O)O)NC(=O)[C@H](CO)NC(=O)[C@@H](NC(=O)[C@](C)(Cc1ccccc1F)NC(=O)[C@@H](NC(=O)CNC(=O)[C@H](CCC(=O)O)NC(=O)C(C)(C)NC(=O)[C@@H](N)Cc1ccc(O)cc1)[C@@H](C)O)[C@@H](C)O)[C@@H](C)CC)[C@@H](C)CC)C(=O)N[C@@H](CCCCNC(=O)COCCOCCNC(=O)COCCOCCNC(=O)COCCOCCNC(=O)CC[C@H](NC(=O)CCCCCCCCCCCCC(=O)O)C(=O)O)C(=O)NCC(=O)NCC(=O)N1CCC[C@H]1C(=O)N[C@@H](CO)C(=O)N[C@@H](CO)C(=O)NCC(=O)N[C@@H](C)C(=O)N1CCC[C@H]1C(=O)N1CCC[C@H]1C(=O)N1CCC[C@H]1C(=O)N[C@@H](CO)C(N)=O` [Example 224]: the Emax in assay [1] (HEK293, percent of maximal response to GLP-1(7-36)NH2, 37° C., 0.1% bovine casein, arithmetic mean, read-out: hGLP-1R Emax, % ± SEM) was 88.4%; in assay [3] (setting [5]), 90.6%; in assay [3] (HEK293, percent of maximal response to GIP(1-42)NH2, 37° C., 0.1% bovine casein, arithmetic mean, read-out: hGIPR Emax, % ± SEM) it was 109%. For the same molecule, the concentration giving a half-maximal response (EC50) in assay [1] (incubated at 37° C., read-out: hGLP-1R EC50, nM (SEM, n)) is 7.51 nM; in assay [2] (setting [4]), greater than 9950 nM; in assay [2] (cAMP, incubated at 37° C., 0.1% bovine casein (no human serum albumin), read-out: hGCGR EC50, nM (SEM, n)) it was greater than 9950 nM; in assay [3] (0.1% bovine casein and 1.0% human serum albumin, 37° C., read-out: hGIPR EC50, nM (SEM, n)) it was 2.92 nM.

Broadly, the EC50 is the concentration that produces a half-maximal response. By Emax is commonly meant the maximal effect, on the per cent scale that the assay sets.
